Assay results taken from BindingDB's records for patent US20250059174 (Enanta Pharmaceuticals, 2025).

These compounds were tested against Mast/stem cell growth factor receptor Kit (Homo sapiens, UniProt P10721) (assay: c-KIT Kinase Assay).
Experimental: Kinase Reaction: The kinase assay was based on the recommended protocol by c-KIT Kinase Enzyme System from Promega. Recombinant human c-KIT kinase in 3 μL of assay buffer (40 mM Tris pH 7.5, 20 mM MgCl2, 0.1 mg/mL BSA and 50 μM DTT) was added to the test or high control wells and 3 μL of assay buffer was added to the low control wells. The microplate was centrifuged at 800 rotations per minute (rpm) for 60 s and incubated at room temperature (RT) for 30 min. Next, 2 μL of buffered ATP and polyEY substrate solution was added to all wells. The microplate was centrifuged at 800 rpm for 60 s and incubated at RT for 2 h. […] ADP detection with ADP-Glo™ Kinase Assay: After the kinase reaction incubation, 5 μL of ADP-Glo™ reagent was added to all wells. The microplate was centrifuged at 800 rpm for 60 s and incubated at RT for 40 min. Ten microliter (10 μL) of Kinase Detection Reagent (Luciferin-Luciferase system) was then added to all wells. The microplate was centrifuged at 800 rpm for 60 s and incubated at RT for 60 min. Kinase activity was measured as increase in luminescence at RT in an Envision plate reader equipped with 560 nm filters and operating in endpoint mode.

Mast/stem cell growth factor receptor Kit, sequence (P10721 whole entry): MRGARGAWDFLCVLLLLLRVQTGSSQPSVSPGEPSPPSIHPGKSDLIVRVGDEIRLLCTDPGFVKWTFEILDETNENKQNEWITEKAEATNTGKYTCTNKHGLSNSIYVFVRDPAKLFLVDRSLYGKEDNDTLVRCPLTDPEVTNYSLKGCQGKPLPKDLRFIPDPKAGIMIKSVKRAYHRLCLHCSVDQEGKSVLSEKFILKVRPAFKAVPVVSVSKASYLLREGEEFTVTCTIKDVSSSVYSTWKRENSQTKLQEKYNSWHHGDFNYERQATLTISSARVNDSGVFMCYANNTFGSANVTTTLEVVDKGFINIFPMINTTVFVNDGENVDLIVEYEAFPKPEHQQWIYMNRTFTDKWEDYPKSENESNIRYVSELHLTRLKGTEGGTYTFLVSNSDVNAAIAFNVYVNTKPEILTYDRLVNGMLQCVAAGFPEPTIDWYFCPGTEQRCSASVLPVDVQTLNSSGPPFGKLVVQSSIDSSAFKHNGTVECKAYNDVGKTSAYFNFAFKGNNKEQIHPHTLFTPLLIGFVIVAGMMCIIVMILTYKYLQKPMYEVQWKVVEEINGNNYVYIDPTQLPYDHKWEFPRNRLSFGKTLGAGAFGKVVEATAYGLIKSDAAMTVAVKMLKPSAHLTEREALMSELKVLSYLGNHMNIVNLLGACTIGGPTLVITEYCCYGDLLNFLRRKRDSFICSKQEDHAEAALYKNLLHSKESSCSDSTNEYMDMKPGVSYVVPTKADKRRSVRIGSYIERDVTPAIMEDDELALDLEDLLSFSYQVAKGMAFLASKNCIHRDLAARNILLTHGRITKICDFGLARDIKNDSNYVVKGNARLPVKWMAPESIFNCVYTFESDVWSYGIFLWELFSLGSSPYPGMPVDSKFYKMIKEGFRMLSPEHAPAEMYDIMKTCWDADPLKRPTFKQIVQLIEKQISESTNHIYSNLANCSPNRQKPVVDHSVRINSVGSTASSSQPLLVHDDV

| Compound | IC50 |
| --- | --- |
| Cc1ccc(-c2noc(C3C[C@@H]3F)n2)cc1NC(=O)c1cnn2ccc(-c3cnn(C(F)F)c3)cc12 (stereo partly drawn) [US20250059174, Example 2a] | < 100 nM |
| Cc1ccc(-c2noc([C@H]3C[C@@H]3F)n2)cc1NC(=O)c1cnc(N2CC(C(=O)O)C2)s1 [US20250059174, Example 98-4] | > 1000 nM |
| Cc1ccc(-c2noc(C3C[C@@H]3F)n2)cc1NC(=O)c1cnn2ccc(N3C[C@H](CS(C)(=O)=O)[C@@H]3C)cc12 (stereo partly drawn) [US20250059174, Example 172] | < 100 nM |
